Values after ≈ are worked out from the molar mass of the structure shown. Bounds are passed on as bounds.

Our source for the MIC values is ChEMBL document CHEMBL1136564, “Sordaricin antifungal agents” (2003).

Experiment [1] concerns Nakaseomyces glabratus. Nature of the experiment: Minimum inhibitory concentration required to inhibit 90 to 100% visible growth of Candida glabrata. The experiment is classed as functional.
Experiment [2] concerns Candida albicans. Nature of the experiment: Minimum inhibitory concentration to inhibit 90 to 100% visible growth of Candida albicans. The experiment is classed as functional.

As to `CC(C)C1=CC2CC3(C=O)C4CC[C@@H](C)C4CC2(CCOC(=O)c2cnc4ccccc4c2)C13C(=O)O` (stereo partly specified), the minimum inhibitory concentration (MIC) was greater than 128 µg/mL in experiment [1] and 4 µg/mL (≈ 7.97 µM) in experiment [2]. For `CC(C)C1=CC2CC3(C=O)C4CC[C@@H](C)C4CC2(CCOC(=O)c2ccco2)C13C(=O)O` (stereo partly specified), the results for the MIC in experiment [1] and in experiment [2] were greater than 128 µg/mL and 8 µg/mL (≈ 18.2 µM), respectively. On the same counts, the results for `CC(C)C1=CC2CC3(C=O)C4CC[C@@H](C)C4CC2(CCOC(=O)c2ccc4c(c2)OCO4)C13C(=O)O` (stereo partly specified) are greater than 128 µg/mL and 2 µg/mL (≈ 4.04 µM). On the same counts, the results for `CC(C)C1=CC2CC3(C=O)C4CC[C@@H](C)C4CC2(CCOC(=O)c2cnc(O)nc2O)C13C(=O)O` (stereo partly specified) are greater than 128 µg/mL and greater than 128 µg/mL. On the same counts, the results for `CC(C)C1=CC2CC3(C=O)C4CC[C@@H](C)C4CC2(CCOC(=O)c2ccc(I)cc2)C13C(=O)O` (stereo partly specified) are greater than 128 µg/mL and 2 µg/mL (≈ 3.47 µM).

Turning to `CC(C)C1=CC2CC3(C=O)C4CC[C@@H](C)C4CC2(CCOC(=O)CCNC(=O)OC(C)(C)C)C13C(=O)O` (stereo partly specified), the MIC in experiment [1] is greater than 128 µg/mL; in experiment [2] it was 64 µg/mL (≈ 124 µM). For `CC(C)C1=CC2CC3(C=O)C4CC[C@@H](C)C4CC2(CCOC(=O)c2ccc4[nH]cnc4c2)C13C(=O)O` (stereo partly specified) the same measures were greater than 128 µg/mL and greater than 128 µg/mL. In experiment [1], `CC(C)C1=CC2CC3(C=O)C4CC[C@@H](C)C4CC2(CCOC(=O)Cc2c[nH]c4ccccc24)C13C(=O)O` (stereo partly specified) displayed an MIC greater than 128 µg/mL. In the case of `CC(C)C1=CC2CC3(C=O)C4CC[C@@H](C)C4CC2(CCOC(=O)C2CCC2)C13C(=O)O` (stereo partly specified), the figures for the MIC in experiment [1] and in experiment [2] were 8 µg/mL (≈ 18.7 µM) and 0.5 µg/mL (≈ 1.17 µM), respectively. On the same counts, the results for `CC(C)C1=CC2CC3(C=O)C4CC[C@@H](C)C4CC2(CCO)C13C(=O)O` (stereo partly specified) are greater than 128 µg/mL and greater than 128 µg/mL. On the same counts, the results for `CSc1ccc(C(=O)OCCC23CC4C(CC[C@H]4C)C4(C=O)CC2C=C(C(C)C)C43C(=O)O)cc1` (stereo partly specified) are greater than 128 µg/mL and 2 µg/mL (≈ 4.03 µM).

Consider `CC(C)C1=CC2CC3(C=O)C4CC[C@@H](C)C4CC2(CCOC(=O)[C@@H]2CCCN2C(=O)OC(C)(C)C)C13C(=O)O` (stereo partly specified), for which the MIC in experiment [1] was found to be 128 µg/mL (≈ 235 µM); in experiment [2] it was 16 µg/mL (≈ 29.4 µM). `CC(C)C1=CC2CC3(C=O)C4CC[C@@H](C)C4CC2(CCOC(=O)c2cc(C(=O)O)[nH]n2)C13C(=O)O` (stereo partly specified): the MIC in experiment [1] and in experiment [2] was greater than 128 µg/mL each time. As to `CC(C)C1=CC2CC3(C=O)C4CC[C@@H](C)C4CC2(CCOC(=O)CCN2CCCCC2)C13C(=O)O` (stereo partly specified), the minimal inhibitory concentration (MIC) in experiment [1] and in experiment [2] was greater than 128 µg/mL throughout.

Consider `CC(C)C1=CC2CC3(C=O)C4CC[C@@H](C)C4CC2(CCOC(=O)c2ccc(Br)cc2)C13C(=O)O` (stereo partly specified), for which the minimal inhibitory concentration (MIC) in experiment [1] and in experiment [2] was greater than 128 µg/mL each time. With `CC(C)C1=CC2CC3(C=O)C4CC[C@@H](C)C4CC2(CCOC(=O)CSc2ccccc2)C13C(=O)O` (stereo partly specified), the MIC in experiment [1] stood at 32 µg/mL (≈ 64.4 µM); in experiment [2], 0.5 µg/mL (≈ 1.01 µM). For `CC(C)C1=CC2CC3(C=O)C4CC[C@@H](C)C4CC2(CCOC(=O)c2nccc4ccccc24)C13C(=O)O` (stereo partly specified) the same measures were greater than 128 µg/mL and greater than 128 µg/mL.

On to `CC(C)C1=CC2CC3(C=O)C4CC[C@@H](C)C4CC2(CCOC(=O)CCC(=O)O)C13C(=O)O` (stereo partly specified), for which the MIC in experiment [1] was greater than 128 µg/mL; in experiment [2] it was less than 128 µg/mL. For the compound `CC(C)C1=CC2CC3(C=O)[C@@H]4CC[C@@H](C)[C@H]4CC2(C(=O)CCc2ccccc2)[C@]13C(=O)O`, the MIC in experiment [1] amounted to 8 µg/mL (≈ 18.4 µM); in experiment [2] it was 16 µg/mL (≈ 36.8 µM). On the same counts, the results for `CC(C)C1=CC2CC3(C=O)C4CC[C@@H](C)C4CC2(CCOC(=O)c2cncc(Br)c2)C13C(=O)O` (stereo partly specified) are greater than 128 µg/mL and 4 µg/mL (≈ 7.54 µM).

Turning to `CC(C)C1=CC2CC3(C=O)C4CC[C@@H](C)C4CC2(CCOC(=O)Cc2csc4ccccc24)C13C(=O)O` (stereo partly specified), the values for the MIC in experiment [1] and in experiment [2] were greater than 128 µg/mL and 8 µg/mL (≈ 15.4 µM), respectively. On the same counts, the results for `CC(C)C1=CC2CC3(C=O)C4CC[C@@H](C)C4CC2(CCOC(=O)c2cccnc2)C13C(=O)O` (stereo partly specified) are greater than 128 µg/mL and 16 µg/mL (≈ 35.4 µM). For `CC(C)C1=CC2CC3(C=O)C4CC[C@@H](C)C4CC2(CCOC(=O)c2ccc(C#N)cc2)C13C(=O)O` (stereo partly specified) the same measures were greater than 128 µg/mL and 8 µg/mL (≈ 16.8 µM). With `CC(C)C1=CC2CC3(C=O)C4CC[C@@H](C)C4CC2(CCOC(=O)C2CCCCC2)C13C(=O)O` (stereo partly specified), the MIC in experiment [1] was 8 µg/mL (≈ 17.5 µM); in experiment [2], less than 0.06 µg/mL. On the same counts, the results for `CC(C)C1=CC2CC3(C=O)C4CC[C@@H](C)C4CC2(CCOC(=O)c2cc4ccccc4o2)C13C(=O)O` (stereo partly specified) are greater than 128 µg/mL and greater than 128 µg/mL. On to `C=Cc1ccc(C(=O)OCCC23CC4C(CC[C@H]4C)C4(C=O)CC2C=C(C(C)C)C43C(=O)O)cc1` (stereo partly specified), for which the MIC in experiment [1] is greater than 128 µg/mL; in experiment [2], 4 µg/mL (≈ 8.39 µM). For the compound `CC(C)C1=CC2CC3(C=O)C4CC[C@@H](C)C4CC2(CCOC(=O)c2ccc(S(N)(=O)=O)cc2)C13C(=O)O` (stereo partly specified), the MIC in experiment [1] and in experiment [2] was greater than 128 µg/mL each time. Take `CC(C)C1=CC2CC3(C=O)C4CC[C@@H](C)C4CC2(CCOC(=O)c2cccn2C)C13C(=O)O` (stereo partly specified): the MIC in experiment [1] and in experiment [2] was greater than 128 µg/mL throughout. Turning to `CC(C)C1=CC2CC3(C=O)C4CC[C@@H](C)C4CC2(CCOC(=O)[C@H](C)NC(=O)OC(C)(C)C)C13C(=O)O` (stereo partly specified), the minimum inhibitory concentration (MIC) in experiment [1] is greater than 128 µg/mL; in experiment [2], 32 µg/mL (≈ 61.8 µM). On the same counts, the results for `CC(C)C1=CC2CC3(C=O)C4CC[C@@H](C)C4CC2(CCOC(=O)Cc2ccc(N(C)C)cc2)C13C(=O)O` (stereo partly specified) are greater than 128 µg/mL and 1 µg/mL (≈ 1.97 µM).

Consider `CC(C)=CC(=O)OCCC12CC3C(CC[C@H]3C)C3(C=O)CC1C=C(C(C)C)C32C(=O)O` (stereo partly specified), for which the MIC stood at 16 µg/mL (≈ 37.3 µM) in experiment [1] and 0.5 µg/mL (≈ 1.17 µM) in experiment [2]. `CSc1ccc(CC(=O)OCCC23CC4C(CC[C@H]4C)C4(C=O)CC2C=C(C(C)C)C43C(=O)O)cc1` (stereo partly specified): the MIC in experiment [1] is greater than 128 µg/mL; in experiment [2] it was 0.5 µg/mL (≈ 0.979 µM). As for `CC(C)C1=CC2CC3(C=O)C4CC[C@@H](C)C4CC2(CCOC(=O)CC(C)(C)C)C13C(=O)O` (stereo partly specified), the MIC in experiment [1] was 4 µg/mL (≈ 9 µM); in experiment [2], less than 0.06 µg/mL. On the same counts, the results for `CC(C)C1=CC2CC3(C=O)C4CC[C@@H](C)C4CC2(CCOC(=O)c2cccc(C(=O)O)n2)C13C(=O)O` (stereo partly specified) are greater than 128 µg/mL and greater than 128 µg/mL. For `CC(C)CCOCCC12CC3C(CC[C@H]3C)C3(C=O)CC1C=C(C(C)C)C32C(=O)O` (stereo partly specified) the same measures were 64 µg/mL (≈ 154 µM) and 2 µg/mL (≈ 4.8 µM). In the case of `CC(C)C1=CC2CC3(C=O)C4CC[C@@H](C)C4CC2(CCOC(=O)c2cccs2)C13C(=O)O` (stereo partly specified), the MIC in experiment [1] and in experiment [2] was greater than 128 µg/mL throughout.

For the compound `CC(C)C1=CC2CC3(C=O)C4CC[C@@H](C)C4CC2(CCOC(=O)Cc2ccco2)C13C(=O)O` (stereo partly specified), the minimum inhibitory concentration (MIC) in experiment [1] was found to be 64 µg/mL (≈ 141 µM); in experiment [2] it was 2 µg/mL (≈ 4.4 µM). For `CC(C)C1=CC2CC3(C=O)[C@@H]4CC[C@@H](C)[C@H]4CC2(C(O)C#Cc2ccccc2)[C@]13C(=O)O` (stereo partly specified) the same measures were 8 µg/mL (≈ 18.5 µM) and 0.25 µg/mL (≈ 0.578 µM). On the same counts, the results for `CC(C)C1=CC2CC3(C=O)C4CC[C@@H](C)C4CC2(CCOC(=O)CCc2c[nH]c4ccccc24)C13C(=O)O` (stereo partly specified) are greater than 128 µg/mL and greater than 128 µg/mL. On the same counts, the results for `CCCCCCCCCCCCCCCCC(O)C12C[C@@H]3[C@H](C)CC[C@H]3C3(C=O)CC1C=C(C(C)C)[C@@]23C(=O)O` (stereo partly specified) are greater than 128 µg/mL and greater than 128 µg/mL. In the case of `CC(=O)OCC(=O)OCCC12CC3C(CC[C@H]3C)C3(C=O)CC1C=C(C(C)C)C32C(=O)O` (stereo partly specified), the MIC in experiment [1] and in experiment [2] was greater than 128 µg/mL in each case.

The term MIC denotes the lowest concentration that inhibits growth of the organism. High values mean a need for much substance, low ones inhibition by little substance.
